Data from article PMC5218480 (PLoS ONE, 2017).

Test system: MV-4-11 cells
Test: Gene expression microarray analysis (Affymetrix PrimeView) and GSEA
Assay type: cell-based, human
Parameters: RFU PODN (11730768_x_at) / Fold change /veh PODN (11730768_x_at) / RFU LINC00158 (11744669_a_at) / Fold change /veh LINC00158 (11744669_a_at) / RFU DUSP10 (11751237_a_at) / Fold change /veh DUSP10 (11751237_a_at) / RFU ID3 (11757404_x_at) / Fold change /veh ID3 (11757404_x_at) / RFU PLEKHG5 (11737974_s_at) / Fold change /veh PLEKHG5 (11737974_s_at) / RFU LRRC4B (11730491_at) / Fold change /veh LRRC4B (11730491_at) / RFU GIMAP4 (11747438_a_at) / Fold change /veh GIMAP4 (11747438_a_at) / RFU KRT8 (11758183_x_at) / Fold change /veh KRT8 (11758183_x_at) / RFU CNN1 (11734310_a_at) / Fold change /veh CNN1 (11734310_a_at) / RFU VPS37D (11726825_at) / Fold change /veh VPS37D (11726825_at) / RFU C10orf10 (11716522_x_at) / Fold change /veh C10orf10 (11716522_x_at) / RFU KIR2DL2 /// KIR2DL4 /// KIR2DL5A /// KIR2DL5B /// KIR2DS1 /// KIR2DS2 /// KIR2DS3 /// KIR2DS4 /// KIR3DL3 /// KIR3DL3 /// KIR3DS1 (11738374_at) / Fold change /veh KIR2DL2 /// KIR2DL4 /// KIR2DL5A /// KIR2DL5B /// KIR2DS1 /// KIR2DS2 /// KIR2DS3 /// KIR2DS4 /// KIR3DL3 /// KIR3DL3 /// KIR3DS1 (11738374_at) / RFU C1QL1 (11718748_at) / Fold change /veh C1QL1 (11718748_at) / RFU TMPRSS4 (11747572_a_at) / Fold change /veh TMPRSS4 (11747572_a_at) / RFU HAMP (11756126_x_at) / Fold change /veh HAMP (11756126_x_at) / RFU RNFT2 (11725882_a_at) / Fold change /veh RNFT2 (11725882_a_at) / RFU NR4A2 (11747474_a_at) / Fold change /veh NR4A2 (11747474_a_at) / RFU ABCC12 (11746883_a_at) / Fold change /veh ABCC12 (11746883_a_at) / RFU TMEM136 (11760407_x_at) / Fold change /veh TMEM136 (11760407_x_at) / RFU CLDN22 /// WWC2 (11732394_at) / Fold change /veh CLDN22 /// WWC2 (11732394_at) / RFU HLA-DPB1 (11760878_x_at) / Fold change /veh HLA-DPB1 (11760878_x_at) / RFU SPINT1 (11716480_a_at) / Fold change /veh SPINT1 (11716480_a_at) / RFU GAP43 (11754022_s_at) / Fold change /veh GAP43 (11754022_s_at) / RFU A4GNT (11735810_at) / Fold change /veh A4GNT (11735810_at) / RFU PRB3 (11715151_x_at) / Fold change /veh PRB3 (11715151_x_at) / RFU TUBB4B (11761932_at) / Fold change /veh TUBB4B (11761932_at) / RFU CAPN14 (11732068_a_at) / Fold change /veh CAPN14 (11732068_a_at) / RFU TMCC2 (11721928_a_at) / Fold change /veh TMCC2 (11721928_a_at) / RFU IRGQ (11745062_a_at) / Fold change /veh IRGQ (11745062_a_at) / RFU FAM174B (11720279_a_at) / Fold change /veh FAM174B (11720279_a_at) / RFU TMPRSS4 (11748680_a_at) / Fold change /veh TMPRSS4 (11748680_a_at) / RFU FAM212B (11763350_a_at) / Fold change /veh FAM212B (11763350_a_at) / RFU PLEKHG5 (11743358_a_at) / Fold change /veh PLEKHG5 (11743358_a_at) / RFU ZSCAN30 (11745921_a_at) / Fold change /veh ZSCAN30 (11745921_a_at) / RFU CMKLR1 (11741424_a_at) / Fold change /veh CMKLR1 (11741424_a_at) / RFU LOC101060620 /// MAPK8IP1 (11723275_at) / Fold change /veh LOC101060620 /// MAPK8IP1 (11723275_at) / RFU SPTSSB (11747773_x_at) / Fold change /veh SPTSSB (11747773_x_at) / RFU PRSS12 (11739890_at) / Fold change /veh PRSS12 (11739890_at) / RFU BIN1 (11741810_x_at) / Fold change /veh BIN1 (11741810_x_at) / RFU WNT11 (11732464_a_at) / Fold change /veh WNT11 (11732464_a_at) / RFU C10orf10 (11716521_a_at) / Fold change /veh C10orf10 (11716521_a_at) / RFU C5orf56 (11738089_at) / Fold change /veh C5orf56 (11738089_at) / RFU CYB561 (11721691_x_at) / Fold change /veh CYB561 (11721691_x_at) / RFU ANKRD19P (11752326_a_at) / Fold change /veh ANKRD19P (11752326_a_at) / RFU OR2T12 /// OR2T33 /// OR2T8 (11738714_s_at) / Fold change /veh OR2T12 /// OR2T33 /// OR2T8 (11738714_s_at) / RFU VCAN (11748164_a_at) / Fold change /veh VCAN (11748164_a_at) / RFU JSRP1 (11732532_at) / Fold change /veh JSRP1 (11732532_at) / RFU KRTAP10-11 (11738290_x_at) / Fold change /veh KRTAP10-11 (11738290_x_at) / RFU MYO3A (11730013_a_at) / Fold change /veh MYO3A (11730013_a_at) / RFU EBF3 (11725865_a_at) / Fold change /veh EBF3 (11725865_a_at) / RFU CAMK2N1 (11719241_x_at) / Fold change /veh CAMK2N1 (11719241_x_at) / RFU C5orf56 (11738088_a_at) / Fold change /veh C5orf56 (11738088_a_at) / RFU OLFML3 (11715873_a_at) / Fold change /veh OLFML3 (11715873_a_at) / RFU LOC100653217 /// NTM (11731650_a_at) / Fold change /veh LOC100653217 /// NTM (11731650_a_at) / RFU MAPK11 (11762145_a_at) / Fold change /veh MAPK11 (11762145_a_at) / RFU FIZ1 (11724087_x_at) / Fold change /veh FIZ1 (11724087_x_at) / RFU OASL (11726364_x_at) / Fold change /veh OASL (11726364_x_at) / RFU SOX15 (11748057_x_at) / Fold change /veh SOX15 (11748057_x_at) / RFU CD79A (11719716_a_at) / Fold change /veh CD79A (11719716_a_at) / RFU HIST1H1D (11736915_at) / Fold change /veh HIST1H1D (11736915_at) / RFU CASKIN2 (11723855_a_at) / Fold change /veh CASKIN2 (11723855_a_at) / RFU LOC730098 (11760151_x_at) / Fold change /veh LOC730098 (11760151_x_at) / RFU OR4N2 (11742367_at) / Fold change /veh OR4N2 (11742367_at) / RFU PRRT2 (11749266_a_at) / Fold change /veh PRRT2 (11749266_a_at) / RFU SNX32 (11753110_a_at) / Fold change /veh SNX32 (11753110_a_at) / RFU CDHR5 (11726645_a_at) / Fold change /veh CDHR5 (11726645_a_at) / RFU RCAN1 (11760418_a_at) / Fold change /veh RCAN1 (11760418_a_at) / RFU FAM167A (11723789_a_at) / Fold change /veh FAM167A (11723789_a_at) / RFU FAM26E (11764081_at) / Fold change /veh FAM26E (11764081_at) / RFU ISYNA1 (11749810_s_at) / Fold change /veh ISYNA1 (11749810_s_at) / RFU ACY1 (11761880_at) / Fold change /veh ACY1 (11761880_at) / RFU 11764098_at / Fold change /veh 11764098_at / RFU SAMD14 (11745864_x_at) / Fold change /veh SAMD14 (11745864_x_at) / RFU NPB (11741838_a_at) / Fold change /veh NPB (11741838_a_at) / RFU TMPRSS6 (11731388_a_at) / Fold change /veh TMPRSS6 (11731388_a_at) / RFU KRTAP10-2 (11738614_at) / Fold change /veh KRTAP10-2 (11738614_at) / RFU ARHGAP8 /// PRR5-ARHGAP8 (11727945_x_at) / Fold change /veh ARHGAP8 /// PRR5-ARHGAP8 (11727945_x_at) / RFU KRTAP5-7 /// NADSYN1 (11734609_at) / Fold change /veh KRTAP5-7 /// NADSYN1 (11734609_at) / RFU RASL12 (11751679_a_at) / Fold change /veh RASL12 (11751679_a_at) / RFU CDKN2B (11736163_a_at) / Fold change /veh CDKN2B (11736163_a_at) / RFU PRF1 (11729649_at) / Fold change /veh PRF1 (11729649_at) / RFU, ZNF638 /// ZNF638-IT1 / Fold change vs veh, ZNF638 /// ZNF638-IT1 / RFU, PANK3 / Fold change vs veh, PANK3 / RFU, SH3YL1 / Fold change vs veh, SH3YL1 / RFU, ZEB2 / Fold change vs veh, ZEB2 / RFU, NRIP1 / Fold change vs veh, NRIP1 / RFU, PTTG1IP / Fold change vs veh, PTTG1IP / RFU, CAPN2 / Fold change vs veh, CAPN2 / RFU, MED14 / Fold change vs veh, MED14 / RFU, SNORA58 / Fold change vs veh, SNORA58 / RFU, C1orf63 / Fold change vs veh, C1orf63 / RFU, LRRFIP1 / Fold change vs veh, LRRFIP1 / RFU, NDUFAF7 / Fold change vs veh, NDUFAF7 / RFU, SLC12A2 / Fold change vs veh, SLC12A2 / RFU, IBTK / Fold change vs veh, IBTK / RFU, ESF1 / Fold change vs veh, ESF1 / Fold change vs veh, TMEM50B / RFU, TAOK1 / Fold change vs veh, TAOK1 / RFU, ACBD3 / Fold change vs veh, ACBD3 / RFU, TMA16 / Fold change vs veh, TMA16 / RFU, RWDD3 / Fold change vs veh, RWDD3 / RFU, BCAT1 / Fold change vs veh, BCAT1 / RFU, EDEM3 / Fold change vs veh, EDEM3 / RFU, TMEM33 / Fold change vs veh, TMEM33 / RFU, WDR75 / Fold change vs veh, WDR75 / RFU, AHCTF1 / Fold change vs veh, AHCTF1 / RFU, TFRC / Fold change vs veh, TFRC / RFU, ZDHHC17 / Fold change vs veh, ZDHHC17 / RFU, NOM1 / Fold change vs veh, NOM1 / RFU, ARL8B / Fold change vs veh, ARL8B / RFU, ZBTB11 / Fold change vs veh, ZBTB11 / RFU, TAMM41 / Fold change vs veh, TAMM41 / RFU, KIAA1704 /// LOC100996395 / Fold change vs veh, KIAA1704 /// LOC100996395 / RFU, ING1 / Fold change vs veh, ING1 / RFU, TRMT61B / Fold change vs veh, TRMT61B / RFU, FUBP3 / Fold change vs veh, FUBP3 / RFU, TP53 / Fold change vs veh, TP53 / RFU, TNKS2 / Fold change vs veh, TNKS2 / RFU, ZFP14 / Fold change vs veh, ZFP14 / RFU, ACTR2 / Fold change vs veh, ACTR2 / RFU, PPP3R1 / Fold change vs veh, PPP3R1 / RFU, PIK3R1 / Fold change vs veh, PIK3R1 / RFU, HNRNPA1 / Fold change vs veh, HNRNPA1 / RFU, RNF170 / Fold change vs veh, RNF170 / RFU, ZNF28 / Fold change vs veh, ZNF28 / RFU, RNGTT / Fold change vs veh, RNGTT / RFU, OGT / Fold change vs veh, OGT / RFU, BRD1 / Fold change vs veh, BRD1 / RFU, MARS / Fold change vs veh, MARS / RFU, ZNF655 / Fold change vs veh, ZNF655 / RFU, FAHD1 / Fold change vs veh, FAHD1 / RFU, BDP1 / Fold change vs veh, BDP1 / RFU, LRRCC1 / Fold change vs veh, LRRCC1 / RFU, ARID1A / Fold change vs veh, ARID1A / RFU, ZNF146 / Fold change vs veh, ZNF146 / RFU, ZNF330 / Fold change vs veh, ZNF330 / RFU, GPN3 / Fold change vs veh, GPN3 / RFU, C9orf123 / Fold change vs veh, C9orf123 / RFU, N4BP2L2 / Fold change vs veh, N4BP2L2 / RFU, ARFIP1 / Fold change vs veh, ARFIP1 / RFU, FAM179B / Fold change vs veh, FAM179B / RFU, BCL10 / Fold change vs veh, BCL10 / RFU, UHRF1BP1L / Fold change vs veh, UHRF1BP1L / RFU, BET1 / Fold change vs veh, BET1 / RFU, CNOT2 / Fold change vs veh, CNOT2 / RFU, ZNF268 / Fold change vs veh, ZNF268 / Fold change vs veh, ZNF507 / RFU, DGCR2 / Fold change vs veh, DGCR2 / RFU, WDSUB1 / Fold change vs veh, WDSUB1 / Fold change vs veh, HSP90B1 /// MIR3652 / RFU, ADSS / Fold change vs veh, ADSS / RFU, GK / Fold change vs veh, GK / RFU, ZNF148 / Fold change vs veh, ZNF148 / RFU, TAF9 / Fold change vs veh, TAF9 / RFU, SLC1A5 / Fold change vs veh, SLC1A5 / RFU, SLMO2 / Fold change vs veh, SLMO2 / RFU, ABCC4 / Fold change vs veh, ABCC4 / RFU, LOC101060439 /// RAP1B / Fold change vs veh, LOC101060439 /// RAP1B / RFU, RFX7 / Fold change vs veh, RFX7 / RFU, GTPBP10 / Fold change vs veh, GTPBP10 / RFU, CNEP1R1 / Fold change vs veh, CNEP1R1 / RFU, BIVM-ERCC5 /// ERCC5 / Fold change vs veh, BIVM-ERCC5 /// ERCC5 / RFU, ILF3 / Fold change vs veh, ILF3 / RFU 11762660_at / Fold change /veh 11762660_at / RFU VCAN (11757783_s_at) / Fold change /veh VCAN (11757783_s_at) / RFU DDX43 (11728927_at) / Fold change /veh DDX43 (11728927_at) / RFU KRT8 (11758188_x_at) / Fold change /veh KRT8 (11758188_x_at) / RFU NKD1 (11759106_at) / Fold change /veh NKD1 (11759106_at) / RFU SRD5A1 (11742802_a_at) / Fold change /veh SRD5A1 (11742802_a_at) / RFU TPSAB1 /// TPSB2 (11721975_s_at) / Fold change /veh TPSAB1 /// TPSB2 (11721975_s_at) / RFU GSTM3 (11746129_a_at) / Fold change /veh GSTM3 (11746129_a_at) / RFU IL23R (11737362_x_at) / Fold change /veh IL23R (11737362_x_at) / RFU TMEM51 (11727254_a_at) / Fold change /veh TMEM51 (11727254_a_at) / RFU PIWIL2 (11732686_x_at) / Fold change /veh PIWIL2 (11732686_x_at) / RFU ORM1 (11744905_x_at) / Fold change /veh ORM1 (11744905_x_at) / RFU CCDC152 (11743942_at) / Fold change /veh CCDC152 (11743942_at) / RFU ECM1 (11717891_a_at) / Fold change /veh ECM1 (11717891_a_at) / RFU IL23R (11748794_a_at) / Fold change /veh IL23R (11748794_a_at) / RFU TNFAIP8L3 (11732012_x_at) / Fold change /veh TNFAIP8L3 (11732012_x_at) / RFU MBOAT4 (11741988_at) / Fold change /veh MBOAT4 (11741988_at) / RFU 11764193_at / Fold change /veh 11764193_at / RFU TMEM53 (11763286_at) / Fold change /veh TMEM53 (11763286_at) / RFU MAGEB2 (11727129_at) / Fold change /veh MAGEB2 (11727129_at) / RFU TMEM200A (11744735_a_at) / Fold change /veh TMEM200A (11744735_a_at) / RFU CCDC152 (11751479_a_at) / Fold change /veh CCDC152 (11751479_a_at) / RFU FAM211A (11726209_a_at) / Fold change /veh FAM211A (11726209_a_at) / RFU RGS16 (11746705_a_at) / Fold change /veh RGS16 (11746705_a_at) / RFU VCAN (11755009_s_at) / Fold change /veh VCAN (11755009_s_at) / RFU RHOB (11743442_s_at) / Fold change /veh RHOB (11743442_s_at) / RFU RGS16 (11720943_a_at) / Fold change /veh RGS16 (11720943_a_at) / RFU RGS16 (11720944_at) / Fold change /veh RGS16 (11720944_at) / RFU, VPS4B / Fold change vs veh, VPS4B / RFU, CREB1 / Fold change vs veh, CREB1 / RFU, DNAJC13 / Fold change vs veh, DNAJC13 / RFU, GNAQ / Fold change vs veh, GNAQ / RFU, CDK5R1 / Fold change vs veh, CDK5R1 / RFU, ZRANB3 / Fold change vs veh, ZRANB3 / RFU, CUL4A / Fold change vs veh, CUL4A / RFU, CCNY / Fold change vs veh, CCNY / RFU, UFL1 / Fold change vs veh, UFL1 / RFU, COG3 / Fold change vs veh, COG3 / RFU, DIAPH2 / Fold change vs veh, DIAPH2 / RFU, SKA2 / Fold change vs veh, SKA2 / RFU, AFF3 / Fold change vs veh, AFF3 / RFU, LMF1 / Fold change vs veh, LMF1 / RFU, IPO11 / Fold change vs veh, IPO11 / RFU, DFFB / Fold change vs veh, DFFB / RFU, FOXP1 / Fold change vs veh, FOXP1 / RFU, CARD8 / Fold change vs veh, CARD8 / RFU, STRN3 / Fold change vs veh, STRN3 / RFU, ADK / Fold change vs veh, ADK / RFU, RASSF2 / Fold change vs veh, RASSF2 / RFU, WIPF1 / Fold change vs veh, WIPF1 / RFU, LARP1B / Fold change vs veh, LARP1B / RFU, RASA1 / Fold change vs veh, RASA1 / RFU, RB1 / Fold change vs veh, RB1 / RFU, PPFIA1 / Fold change vs veh, PPFIA1 / RFU, MAT2A / Fold change vs veh, MAT2A / RFU, CCT5 / Fold change vs veh, CCT5 / RFU, WDR92 / Fold change vs veh, WDR92 / RFU, CUX1 / Fold change vs veh, CUX1 / RFU, TTC7A / Fold change vs veh, TTC7A / RFU, TMEM135 / Fold change vs veh, TMEM135 / RFU, DEPTOR / Fold change vs veh, DEPTOR / RFU, CPM / Fold change vs veh, CPM / RFU, DNAJB6 / Fold change vs veh, DNAJB6 / RFU, CACNA2D3 / Fold change vs veh, CACNA2D3 / RFU, DTX4 / Fold change vs veh, DTX4 / RFU, TFCP2 / Fold change vs veh, TFCP2 / RFU, GMCL1 /// GMCL1P1 / Fold change vs veh, GMCL1 /// GMCL1P1 / RFU, AEBP2 / Fold change vs veh, AEBP2 / RFU, SNHG1 /// SNORD22 /// SNORD25 /// SNORD26 /// SNORD27 /// SNORD28 /// SNORD29 /// SNORD31 / Fold change vs veh, SNHG1 /// SNORD22 /// SNORD25 /// SNORD26 /// SNORD27 /// SNORD28 /// SNORD29 /// SNORD31 / Fold change (Aza/veh), C12orf56 (ProbeSet 11735607_a_at) / Fold change (ACY-1035/veh), C12orf56 (ProbeSet 11735607_a_at) / Fold change (Aza/veh), FGFR1OP (ProbeSet 11751329_s_at) / Fold change (ACY-1035/veh), FGFR1OP (ProbeSet 11751329_s_at) / Fold change (Aza/veh), VPS36 (ProbeSet 11739960_a_at) / Fold change (ACY-1035/veh), VPS36 (ProbeSet 11739960_a_at) / RFU SYPL1 (11715823_x_at) / Fold change /veh SYPL1 (11715823_x_at) / RFU IGFBP7 (11715501_s_at) / Fold change /veh IGFBP7 (11715501_s_at) / RFU REEP3 (11722064_at) / Fold change /veh REEP3 (11722064_at) / RFU IGLL1 (11728026_x_at) / Fold change /veh IGLL1 (11728026_x_at): dose or concentration left out as unconfirmed
Details: ProbeSet 11747889_x_at; LIST B

Nc1ncn([C@@H]2O[C@H](CO)[C@@H](O)[C@H]2O)c(=O)n1 [azacitidine]
Fold change vs veh, SH3YL1: 0.87
